Molecules are shown by their SMILES. Structures can show the parent of a compound that is named as a salt.

One assay deals with T1, IRAK-M (Homo sapiens, UniProt Q9Y616).
T1 sequence (Q9Y616 1-596): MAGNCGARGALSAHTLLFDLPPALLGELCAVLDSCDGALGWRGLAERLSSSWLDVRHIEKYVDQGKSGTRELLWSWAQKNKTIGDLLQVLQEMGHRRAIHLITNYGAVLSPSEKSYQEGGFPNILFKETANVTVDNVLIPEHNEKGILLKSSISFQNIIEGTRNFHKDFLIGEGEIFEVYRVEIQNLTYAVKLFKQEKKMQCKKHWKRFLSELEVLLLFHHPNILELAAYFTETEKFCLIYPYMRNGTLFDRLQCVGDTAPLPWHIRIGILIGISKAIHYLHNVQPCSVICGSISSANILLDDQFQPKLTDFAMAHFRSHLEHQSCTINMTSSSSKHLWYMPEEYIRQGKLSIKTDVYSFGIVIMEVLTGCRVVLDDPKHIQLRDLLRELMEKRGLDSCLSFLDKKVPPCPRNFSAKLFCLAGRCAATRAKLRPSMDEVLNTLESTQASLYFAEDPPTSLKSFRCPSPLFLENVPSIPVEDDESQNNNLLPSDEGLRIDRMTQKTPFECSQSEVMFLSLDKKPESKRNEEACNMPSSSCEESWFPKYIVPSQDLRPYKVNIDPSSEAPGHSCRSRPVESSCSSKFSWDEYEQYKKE
Kind of assay: IRAK-M binding inhibitory activity (KINOMEscan active site-dependent competitive assay). Also on record: purchased Eurofins Discover X. The following applies: concentration of the test compound 1 μM; first symbol of cell; read-out: IRAK-M binding inhibition activity % Ctrl. As for the experimental part: IRAK-M binding inhibitory activity was evaluated using active site-dependent competitive assay KINOMEscan® provided by Eurofins Discover X (Goldstein, D. M. et al. High-throughput kinase profiling as a platform for drug discovery. Nat. Rev. Drug Discovery. 7, 391-397 (2008)). IRAK-M binding inhibitory activity of the test compound was evaluated. […] The “% Ctrl” is calculated by the following formula.
(test compound signal−positive control compound signal)/(negative control compound signal−positive control compound signal)×100
Negative control compound=DMSO (100 Ctrl)
Positive control compound=control compound (0%×Ctrl)
Turning to `COC(=O)c1cc2ncnc(NCC3CC3)c2s1` [Ref. example 30, methyl 4-((cyclopropylmethyl)amino)thieno[3,2-d]pyrimidine-6-carboxylate], the remaining binding at 1 µM was ≥ 75%.

As to `c1nc(Nc2ccc3[nH]cnc3c2)c2sccc2n1` [Ref. example 26, N-(1H-benzo[d]imidazol-5-yl)thieno[3,2-d]pyrimidin-4-amine], the remaining binding at 1 µM was ≥ 75%. Consider `O=S(=O)(c1cccc(F)c1)N1CCC(Oc2ncnc3ccsc23)CC1` [Ref. example 56, 4-((1-((3-fluorophenyl)sulfonyl)piperidin-4-yl)oxy)thieno[3,2-d]pyrimidine], for which the remaining binding at 1 µM lay within 25 to 50%.

As for `Cc1c(CN2CCC(Oc3ccnc4ccsc34)CC2)cnn1C` [Ref. example 76, 7-((1-((1,5-dimethyl-1H-pyrazol-4-yl)methyl)piperidin-4-yl)oxy)thieno[3,2-b]pyridine], the remaining binding at 1 µM is 50 to 75%. Same read-out and setting: the same measure for `Cc1ccc(NS(=O)(=O)c2ccc(CNC(=O)COCCOCCOCCOc3cc(CN4CCC(Oc5ccnc6ccsc56)CC4)on3)cc2)c2[nH]cc(C#N)c12` [Example 69, N-(4-(N-(3-cyano-4-methyl-1H-indol-7-yl)sulfamoyl)benzyl)-2-(2-(2-(2-((5-((4-(thieno[3,2-b]pyridin-7-yloxy)piperidin-1-yl)methyl)isoxazol-3-yl)oxy)ethoxy)ethoxy)ethoxy)acetamide]: 25 to 50%; for `O=S(=O)(c1ccccc1Cl)N1CCC(Oc2ncnc3ccsc23)CC1` [Ref. example 45, 4-((1-((2-chlorophenyl)sulfonyl)piperidin-4-yl)oxy)thieno[3,2-d]pyrimidine]: < 25%; for `c1cc(OC2CCN(Cc3cc(OC[C@@H]4CCCN4)no3)CC2)c2sccc2n1` [Ref. example 10, (S)-3-(Pyrrolidin-2-ylmethoxy)-5-((4-(thieno[3,2-b]pyridin-7-yloxy)piperidin-1-yl)methyl)isoxazole trihydrochloride]: < 25%.

`c1nc(Nc2ccc3cn[nH]c3c2)c2sccc2n1` [Ref. example 28, N-(1H-indazol-6-yl)thieno[3,2-d]pyrimidin-4-amine]: the remaining binding at 1 µM lay in the range of 50 to 75%. Still for that read-out and setting: to `Cc1ccccc1S(=O)(=O)N1CCC(Oc2ncnc3ccsc23)CC1` [Ref. example 47, 4-((1-(o-tolylsulfonyl)piperidin-4-yl)oxy)thieno[3,2-d]pyrimidine] belongs < 25%; to `COc1ccc(S(=O)(=O)N2CCC(Oc3ncnc4ccsc34)CC2)cn1` [Ref. example 60, 4-((1-((6-methoxypyridin-3-yl)sulfonyl)piperidin-4-yl)oxy)thieno[3,2-d]pyrimidine], 25 to 50%.

As for `COc1ccc(Nc2nc(C)nc3cc(C)sc23)cc1OC` [Ref. example 66, N-(3,4-dimethoxyphenyl)-2,6-dimethylthieno[3,2-d]pyrimidin-4-amine], the remaining binding at 1 µM lay within 50 to 75%. Same read-out and setting: to `CN1CCC(Oc2ncnc3cc(I)sc23)CC1` [Ref. example 36, 6-iodo-4-((1-methylpiperidin-4-yl)oxy)thieno[3,2-d]pyrimidine] belongs ≥ 75%. Take `O=S(=O)(Cc1ccccc1)N1CCC(Oc2ncnc3ccsc23)CC1` [Ref. example 41, 4-((1-(benzylsulfonyl)piperidin-4-yl)oxy)thieno[3,2-d]pyrimidine]: the remaining binding at 1 µM was 25 to 50%. Consider `Cc1ncsc1-c1ccc(CNC(=O)[C@@H]2C[C@@H](O)CN2C(=O)[C@H](C(C)C)N2Cc3ccccc3C2=O)c(OCCOCCOCCOCCOc2cc(CN3CCC(Oc4ccnc5ccsc45)CC3)on2)c1` [Example 64, (2S,4R)-4-hydroxy-1-((S)-3-methyl-2-(1-oxoisoindolin-2-yl)butanoyl)-N-(4-(4-methylthiazol-5-yl)-2-(2-(2-(2-(2-((5-((4-(thieno[3,2-b]pyridin-7-yloxy)piperidin-1-yl)methyl)isoxazol-3-yl)oxy)ethoxy)ethoxy)ethoxy)ethoxy)benzyl)pyrrolidine-2-carboxamide], for which the remaining binding at 1 µM was ≥ 75%. The same measure, in the same setting: to `O=S(=O)(c1cccc(Oc2ccccc2)c1)N1CCC(Oc2ncnc3ccsc23)CC1` [Ref. example 64, 4-((1-((3-phenoxyphenyl)sulfonyl)piperidin-4-yl)oxy)thieno[3,2-d]pyrimidine] belongs < 25%; to `COCCS(=O)(=O)N1CCC(Oc2ncnc3ccsc23)CC1` [Ref. example 40, 4-((1-((2-methoxyethyl)sulfonyl)piperidin-4-yl)oxy)thieno[3,2-d]pyrimidine], 25 to 50%; to `COc1cccc(S(=O)(=O)N2CCC(Oc3ncnc4ccsc34)CC2)c1` [Ref. example 54, 4-((1-((3-methoxyphenyl)sulfonyl)piperidin-4-yl)oxy)thieno[3,2-d]pyrimidine], 25 to 50%. Consider `C#CCN1CCC(Oc2ccnc3ccsc23)CC1` [Ref. example 67, 7-((1-(prop-2-yn-1-yl)piperidin-4-yl)oxy)thieno[3,2-b]pyridine], for which the remaining binding at 1 µM fell in the range of 25 to 50%. Still for that read-out and setting: the same measure for `O=S(=O)(c1cccnc1)N1CCC(Oc2ncnc3ccsc23)CC1` [Ref. example 58, 4-((1-(pyridin-3-ylsulfonyl)piperidin-4-yl)oxy)thieno[3,2-d]pyrimidine]: 25 to 50%; for `CCOc1ccc(Nc2ncnc3ccsc23)cc1` [Ref. example 65, N-(4-ethoxyphenyl)thieno[3,2-d]pyrimidin-4-amine]: ≥ 75%.

As for `O=C1NC(=O)c2cc(Nc3ncnc4ccsc34)ccc21` [Ref. example 27, 5-(thieno[3,2-d]pyrimidin-4-ylamino)isoindoline-1,3-dione], the remaining binding at 1 µM was in the range of 50 to 75%.

Take `O=S(=O)(c1c(F)cccc1F)N1CCC(Oc2ncnc3ccsc23)CC1` [Ref. example 38, 4-((1-((2,6-difluorophenyl)sulfonyl)piperidin-4-yl)oxy)thieno[3,2-d]pyrimidine]: the remaining binding at 1 µM was 25 to 50%. The same measure, in the same setting: the same measure for `CCOC(=O)CCS(=O)(=O)N1CCC(Oc2ncnc3ccsc23)CC1` [Ref. example 43, ethyl 3-((4-(thieno[3,2-d]pyrimidin-4-yloxy)piperidin-1-yl)sulfonyl)propanoate]: 50 to 75%; for `CC(C)CS(=O)(=O)N1CCC(Oc2ncnc3ccsc23)CC1` [Ref. example 62, 4-((1-(isobutylsulfonyl)piperidin-4-yl)oxy)thieno[3,2-d]pyrimidine]: 25 to 50%.

For the molecule `Cc1ncc(CN2CCC(Oc3ccnc4ccsc34)CC2)s1` [Ref. example 80, 7-((1-((2-methylthiazol-5-yl)methyl)piperidin-4-yl)oxy)thieno[3,2-b]pyridine], the remaining binding at 1 µM was 25 to 50%. On to `Cc1cc2nccc(OC3CCN(Cc4cc(O)no4)CC3)c2s1` [Ref. example 87, 5-((4-((2-methylthieno[3,2-b]pyridin-7-yl)oxy)piperidin-1-yl)methyl)isoxazol-3-ol], for which the remaining binding at 1 µM is 25 to 50%. Same read-out and setting: to `Cc1ccc(NS(=O)(=O)c2ccc(CNC(=O)COCCOc3cc(CN4CCC(Oc5ccnc6ccsc56)CC4)on3)cc2)c2[nH]cc(C#N)c12` [Example 70, N-(4-(N-(3-cyano-4-methyl-1H-indol-7-yl)sulfamoyl)benzyl)-2-(2-((5-((4-(thieno[3,2-b]pyridin-7-yloxy)piperidin-1-yl)methyl)isoxazol-3-yl)oxy)ethoxy)acetamide] belongs < 25%; to `C=CCOc1cc(C(C)N2CCC(Oc3ccnc4cc(C)sc34)CC2)on1` (stereo not drawn) [Ref. example 8, 3-(allyloxy)-5-(1-(4-((2-methylthieno[3,2-b]pyridin-7-yl)oxy)piperidin-1-yl)ethyl)isoxazole (enantiomer)], < 25%.

The assay is the same for the next values; noted with them: second symbol of cell; read-out: IRAK-M binding inhibition IC50 value.
Regarding `C=CCOc1cc(C(C)N2CCC(Oc3ccnc4ccsc34)CC2)on1` (single isomer, unassigned) [Ref. example 6, 3-(allyloxy)-5-(1-(4-(thieno[3,2-b]pyridin-7-yloxy)piperidin-1-yl)ethyl)isoxazole (enantiomer)], the IC50 was in the range of 0.1 to 0.3 µM. Consider `C=CCOc1cc(CN2CCC(Oc3ccnc4ccsc34)CC2)n(C)n1` [Ref. example 69, 7-((1-((3-(allyloxy)-1-methyl-1H-pyrazol-5-yl)methyl)piperidin-4-yl)oxy)thieno[3,2-b]pyridine], for which the concentration for half-maximal inhibition (IC50) fell in the range of 0.1 to 0.3 µM. Same read-out and setting: the same measure for `O=C1CCC(N2C(=O)c3cccc(OCCOCCOc4cc(CN5CCC(Oc6ccnc7ccsc67)CC5)on4)c3C2=O)C(=O)N1` (centres unmarked) [Example 66, 2-(2,6-dioxopiperidin-3-yl)-4-(2-(2-((5-((4-(thieno[3,2-b]pyridin-7-yloxy)piperidin-1-yl)methyl)isoxazol-3-yl)oxy)ethoxy)ethoxy)isoindoline-1,3-dione]: 0.1 to 0.3 µM; for `C=CCOc1cc(CN2CCC(Oc3ncnc4ccsc34)CC2)on1` [Ref. example 70, 3-(allyloxy)-5-((4-(thieno[3,2-d]pyrimidin-4-yloxy)piperidin-1-yl)methyl)isoxazole]: 0.1 to 0.3 µM.

In general, IC50 refers to the concentration at which inhibition is half-maximal.

For the origin of these results see patent US20220402935A1, “HETEROCYCLIC COMPOUND” (FIMECS, INC., priority 2019, published 2022).
